# Data from US4710578A, “Isothiuronium salts” (Peremartoni Vegyipari Vallalat, priority 1984, dated 1987).
# Structures can show the parent of a compound that is named as a salt. Where two headings read alike, the source gives them in different places.
# Experiments:
# human lymphocytes [1] = experiment: Mitogen-induced blastos transformation (PHA, Con A); type: cell-based
# Protocol: Lymphocytes were cultivated in a TC 199 liquid nutrient medium completed by 10% decomplemented calf serum, antibiotics and […] HEPES (Serva). 200 μl of a cell suspension comprising 2.10^5 lymphocytes were placed on a microplate (manufacturer: Sterilin Great Britain); five parallels were carried out each.
# 2 and 10 μg/ml, respectively of Phytohaemagglutinine (Leucoagglutinine; manufacturer Pharmacie Sweden) and 25 μg/ml of Concanavalin A (Carbiochem) were added to the cultures; the above values relate to final concentration. The cultures were cultivated at 37° C. for 72 hours. Eight hours before the termination of the end of the cultivating period 0.5 μCi ^3 H thymidine (Chemapol. Czechoslovakia) was added to the samples. Incubation was stopped by freezing the cultures. After melting the samples were filtered on an automatic harvester (Dynatech). The radioactivity of the samples was measured in a scintillation counter. The activity was expressed as c.p.m. (Tables IV and V).
# [2] = tested on: human polymorphonuclear leucocytes; experiment: Direct /random/ migration of human polymorphonuclear leucocytes on agarose microdrops; type: cell-based; conditions: seven healthy controls, ± S.E.M.
# Protocol: Spontaneous (random) migration of leukocytes was measured on agarose microdrops according to the method of McCoy et al (1977) by carrying out some minor modifications (Kalmar and Gergely, 1982).
# […] agarose drops (0.2%) were placed on migration plates (Greiner, German Federal Republic). TC 199 liquid nutrient medium was added and the plates were air-tightly closed. After 24 hours the migration area were measured under a stereomicroscope. The migration area were expressed in mm^2.
# human lymphocytes [3] = experiment: ADCC, 51Cr release from chicken erythrocytes; type: cell-based; conditions: for Cytotoxicity index, ADCC: 5:1, 4 hours, n=10, ± S.E.
# Protocol: (§1) Lymphocytes were separated on Ficoll-Uromiro (Boyum 1968) gradient from the venal blood of healthy donors and patients suffering from malignant lymphoma and metastatizing solid tumours, respectively. When selecting the patients belonging to the latter group, the decreased ADCC and NK activity was taken into consideration. The phagocytes were removed by treatment with iron powder and a magnet.
# ADCC was determined according to the method of Perlmann and Perlmann (1970) with minor modifications (Lang et al, 1981). Chicken erythrocytes labelled with 10^5 51 Cr and coated with anti-chicken erythrocyte rabbit-serum were incubated with the lymphocytes for 4 hours at 37° C. The reaction having been stopped the activity of the supernatant of the centrifuged cells was determined in a gamma-counter. The rate of chrome-release was expressed as the cytotoxicity index (CI %). This value was calculated as described in one of our earlier publications (Lang et al., 1980)--(see Table I).
# Effect on ADDC. Cytotoxicity index /%/.
# Ratio of effector cells; aimed cells = 5:1. Incubation time 4 hours.
# human lymphocytes [4] = experiment: NK activity, 51Cr release from K-562 tumor cells; type: cell-based; conditions: for Cytotoxicity index, NK activity: 50:1, 4 hours, ± S.E.
# Protocol: as §1
# NK activity was determined by the method of Jondal and Pross (1975) by using minor modifications (Lang et al, 1981). K-562 tumor cells labelled by ^51 Cr were incubated with effector cells in a TC 199 liquid nutrient medium comprising 10% of decomplemented calf serum. The reaction having been stopped the radioactivity of the superntant of the centrifuged cells (chrome release) was counted in a gamma-counter. The killing of the tumor cells (cytotoxicity index %) was expressed as the difference of the test release and spontaneous release.
# Ratio of effector cells: aimed cells = 50:1.
# Incubation time 4 hours.
# NK-yl ascites tumor = experiment: Combinations with known cytostatic agents in NK-ly ascites tumor; type: in vivo, CFLP mice; conditions: with cyclophosphamide, carnomustine, degranol, dibromo dulcitol or dibromo mannitol
# tumor cells = experiment: Testing of antitumor effect (overall)
# [5] = tested on: neutrophilic granulocytes, lymphocytes and macrophages; experiment: Preliminary rapid test: immunostimulant effect; type: in vivo, CFLP male mice; conditions: oral, one-tenth of LD50; 24 hours
# [6] = tested on: neutrophylic granulocytes and limphocytes; conditions: mouse, in vivo, po
# NK-ly-ascites lymphoma = NK-ly-ascites lymphoma in vivo; design: species or system CFLP male mice
# [7] = in vivo, 24 h
# [8] = Decreased ADCC, 6,7 × 10^-8 mole
# [9] = Decreased ADCC, 6,7 × 10^-9 mole
# [10] = Decreased ADCC, 6,7 × 10^-10 mole
smiles,measurement,setting,value
"C=CCSC(=N)NC(=N)N [Compound A, N-/aminoiminomethyl/-S-allyl-isothiuronium salts (halogenides)]","Blastos transformation, average c.p.m.","human lymphocytes [1]; healthy controls n=6, Con A 25 μg/ml, dose 0.1 μg/ml",10564 c.p.m.
same,"Blastos transformation, average c.p.m.","human lymphocytes [1]; healthy controls n=6, Con A 25 μg/ml, dose 1.0 μg/ml",14089 c.p.m.
same,"Blastos transformation, average c.p.m.","human lymphocytes [1]; healthy controls n=6, Con A 25 μg/ml, dose 10.0 μg/ml",17038 c.p.m.
same,"Blastos transformation, average c.p.m.","human lymphocytes [1]; healthy controls n=6, PHA 2 μg/ml, dose 0.1 μg/ml",22233 c.p.m.
same,"Blastos transformation, average c.p.m.","human lymphocytes [1]; healthy controls n=6, PHA 2 μg/ml, dose 1.0 μg/ml",23156 c.p.m.
same,"Blastos transformation, average c.p.m.","human lymphocytes [1]; healthy controls n=6, PHA 2 μg/ml, dose 10.0 μg/ml",25404 c.p.m.
same,"Blastos transformation, average c.p.m.","human lymphocytes [1]; healthy controls n=6, PHA 10 μg/ml, dose 0.1 μg/ml",29969 c.p.m.
same,"Blastos transformation, average c.p.m.","human lymphocytes [1]; healthy controls n=6, PHA 10 μg/ml, dose 1.0 μg/ml",33826 c.p.m.
same,"Blastos transformation, average c.p.m.","human lymphocytes [1]; healthy controls n=6, PHA 10 μg/ml, dose 10.0 μg/ml",33790 c.p.m.
same,"Blastos transformation, average c.p.m.","human lymphocytes [1]; patients of decreased reactivity /tumor and SLE/ n=6, Con A 25 μg/ml, dose 0.1 μg/ml",1097 c.p.m.
same,"Blastos transformation, average c.p.m.","human lymphocytes [1]; patients of decreased reactivity /tumor and SLE/ n=6, Con A 25 μg/ml, dose 1.0 μg/ml",935 c.p.m.
same,"Blastos transformation, average c.p.m.","human lymphocytes [1]; patients of decreased reactivity /tumor and SLE/ n=6, Con A 25 μg/ml, dose 10.0 μg/ml",1023 ± 361 c.p.m.
same,"Blastos transformation, average c.p.m.","human lymphocytes [1]; patients of decreased reactivity /tumor and SLE/ n=6, PHA 2 μg/ml, dose 0.1 μg/ml",2877 c.p.m.
same,"Blastos transformation, average c.p.m.","human lymphocytes [1]; patients of decreased reactivity /tumor and SLE/ n=6, PHA 2 μg/ml, dose 1.0 μg/ml",4344 c.p.m.
same,"Blastos transformation, average c.p.m.","human lymphocytes [1]; patients of decreased reactivity /tumor and SLE/ n=6, PHA 2 μg/ml, dose 10.0 μg/ml",4716 ± 1287 c.p.m.
same,"Blastos transformation, average c.p.m.","human lymphocytes [1]; patients of decreased reactivity /tumor and SLE/ n=6, PHA 10 μg/ml, dose 0.1 μg/ml",5802 c.p.m.
same,"Blastos transformation, average c.p.m.","human lymphocytes [1]; patients of decreased reactivity /tumor and SLE/ n=6, PHA 10 μg/ml, dose 1.0 μg/ml",6323 c.p.m.
same,"Blastos transformation, average c.p.m.","human lymphocytes [1]; patients of decreased reactivity /tumor and SLE/ n=6, PHA 10 μg/ml, dose 10.0 μg/ml",6968 ± 1669 c.p.m.
same,Migration area,"[2]; 0.1 μg/ml, non significant",10.51 mm^2
same,Migration area,"[2]; 1.0 μg/ml, p < 0.01",12.25 ± 1.58 mm^2
same,Migration area,"[2]; 10.0 μg/ml, p < 0.01",11.24 ± 1.69 mm^2
same,Change of ADCC cytotoxicity index vs control,human lymphocytes [3]; [8],+264%
same,"Cytotoxicity index, ADCC",human lymphocytes [3]; [8],10.2 ± 2.7%
same,Change of ADCC cytotoxicity index vs control,human lymphocytes [3]; [9],+175%
same,"Cytotoxicity index, ADCC",human lymphocytes [3]; [9],7.7 ± 1.9%
same,Change of ADCC cytotoxicity index vs control,human lymphocytes [3]; [10],+126%
same,"Cytotoxicity index, ADCC",human lymphocytes [3]; [10],6.35 ± 1.7%
same,Change of ADCC cytotoxicity index vs control,"human lymphocytes [3]; Normal ADCC, 6,7 × 10^-8 mole",+62%
same,"Cytotoxicity index, ADCC","human lymphocytes [3]; Normal ADCC, 6,7 × 10^-8 mole",68.2 ± 5.3%
same,Change of ADCC cytotoxicity index vs control,"human lymphocytes [3]; Normal ADCC, 6,7 × 10^-9 mole",+52%
same,"Cytotoxicity index, ADCC","human lymphocytes [3]; Normal ADCC, 6,7 × 10^-9 mole",64 ± 5.8%
same,Change of ADCC cytotoxicity index vs control,"human lymphocytes [3]; Normal ADCC, 6,7 × 10^-10 mole",+39%
same,"Cytotoxicity index, ADCC","human lymphocytes [3]; Normal ADCC, 6,7 × 10^-10 mole",58.5 ± 5.2%
same,Change of NK cytotoxicity index vs control,"human lymphocytes [4]; Decreased NK, 6.7 × 10^-9 mole/ml",+68%
same,"Cytotoxicity index, NK activity","human lymphocytes [4]; Decreased NK, 6.7 × 10^-9 mole/ml, n=7",25.3 ± 3.2%
same,Change of NK cytotoxicity index vs control,"human lymphocytes [4]; Decreased NK, 6.7 × 10^-10 mole/ml",+43%
same,"Cytotoxicity index, NK activity","human lymphocytes [4]; Decreased NK, 6.7 × 10^-10 mole/ml, n=7",21.6 ± 3.0%
same,Change of NK cytotoxicity index vs control,"human lymphocytes [4]; Decreased NK, third dose column (printed 6.7 × 10^-31 8)",+113%
same,"Cytotoxicity index, NK activity","human lymphocytes [4]; Decreased NK, third dose column (printed 6.7 × 10^-31 8) mole/ml, n=7",32.2 ± 3.2%
same,Change of NK cytotoxicity index vs control,"human lymphocytes [4]; Normal NK, 6.7 × 10^-9 mole/ml",+32%
same,"Cytotoxicity index, NK activity","human lymphocytes [4]; Normal NK, 6.7 × 10^-9 mole/ml, n=8",43.4 ± 2.7%
same,Change of NK cytotoxicity index vs control,"human lymphocytes [4]; Normal NK, 6.7 × 10^-10 mole/ml",+25%
same,"Cytotoxicity index, NK activity","human lymphocytes [4]; Normal NK, 6.7 × 10^-10 mole/ml, n=8",41 ± 2.9%
same,Change of NK cytotoxicity index vs control,"human lymphocytes [4]; Normal NK, third dose column (printed 6.7 × 10^-31 8)",+45%
same,"Cytotoxicity index, NK activity","human lymphocytes [4]; Normal NK, third dose column (printed 6.7 × 10^-31 8) mole/ml, n=8",47.6 ± 1.4%
"N=C(N)NC(=N)SCCCCl [Example 15, N-Aminoiminomethyl-S-(3-Chloropropyl)-Isothiuronium Bromide]",Antitumor effect of combination vs cytostatic agent alone,NK-yl ascites tumor,the antitumor effect was strengthened
same,Immunodepression of combination vs cytostatic agent alone,NK-yl ascites tumor,immunodepression decreased
same,Antitumor effect,tumor cells,outstanding antitumor effect
same,Immunostimulant effect,[5],weak
same,Toxic effect,[6],0
same,LD50 at 24 h,in vivo; po,1210 ± 180 mg/kg
"C=CCSC(=NC1CCCCC1)NC(=N)N [Example 22, N-Aminoiminomethyl-N'-Cyclohexyl-S-Allyl-Isothiuronium Chloride]",Activity against NK-ly-ascites tumor,NK-ly-ascites lymphoma; concentration below one-tenth of the LD50 value,active agains Nk-ly-ascites tumor in a concentration below one-tenth of the LD50 value
same,Survival rate and lifetime,NK-ly-ascites lymphoma; dose-dependant,increase survival rate and lifetime in a dose-dependant manner
same,Cytotoxical dose range,"NK-ly-ascites lymphoma; mouse, in vivo",40 to 160 mg/kg
same,LD50,[7]; ip,40 ± 6 mg/kg
same,LD50,[7]; po,400 ± 38 mg/kg
same,Immunostimulant effect,[5],weak
same,Toxic effect,[6],0
same,LD50 at 24 h,in vivo; ip,65 ± 5.1 mg/kg
same,LD50 at 24 h,in vivo; po,450 ± 51 mg/kg
"N=C(N)NC(=N)SCCCBr [Example 28, N-aminoiminomethyl-S-(3-bromo-propyl)-isothiuronium bromide]",Antitumor effect of combination vs cytostatic agent alone,NK-yl ascites tumor,the antitumor effect was strengthened
same,Immunodepression of combination vs cytostatic agent alone,NK-yl ascites tumor,immunodepression decreased
same,Antitumor effect,tumor cells,outstanding antitumor effect
same,Immunostimulant effect,[5],weak
same,Toxic effect,[6],0
same,LD50 at 24 h,in vivo; po,980 ± 640 mg/kg
"C=CCSC(=NCC)NC(=N)N [Example 34, N-aminoiminomethyl-N'-ethyl-S-allyl-isothiuronium chloride]",Antitumor effect,tumor cells,outstanding antitumor effect
same,Immunostimulant effect,[5],medium (Medium effect is observed if the increase of cell number or activity over the control amounts to 20%)
same,Toxic effect,[6],0
same,LD50 at 24 h,in vivo; ip,84 ± 7.6 mg/kg
same,LD50 at 24 h,in vivo; po,780 ± 62 mg/kg
"CC(C)N=C(NC(=N)N)SCCCCl [Example 35, N-aminoiminomethyl-N'-isopropyl-S-(3-chloropropyl)-isothiuronium bromide]",Antitumor effect,tumor cells,outstanding antitumor effect
"C=C(C)CSC(=NC(C)C)NC(=N)N [Example 36, N-aminoiminomethyl-N'-isopropyl-S-methallyl-isothiuronium chloride]",Antitumor effect,tumor cells,outstanding antitumor effect
"C=C(C)CSC(=NC1CCCCC1)NC(=N)N [Example 38, N-aminoiminomethyl-N'-cyclohexyl-S-methallyl-isothiuronium chloride]",Antitumor effect,tumor cells,outstanding antitumor effect
